We go through 33 compounds from ChEMBL document CHEMBL1765070, “Structure-based design of potent and selective 3-phosphoinositide-dependent kinase-1 (PDK1) inhibitors” (J Med Chem, 2011).

The target of one assay is Aurora kinase B (Homo sapiens, UniProt Q96GD4). The assay is described as follows: Inhibition of aurora B.
The target of another assay is T1, TGF-beta receptor type-1 (Homo sapiens, UniProt P36897).
T1 sequence (P36897 whole entry): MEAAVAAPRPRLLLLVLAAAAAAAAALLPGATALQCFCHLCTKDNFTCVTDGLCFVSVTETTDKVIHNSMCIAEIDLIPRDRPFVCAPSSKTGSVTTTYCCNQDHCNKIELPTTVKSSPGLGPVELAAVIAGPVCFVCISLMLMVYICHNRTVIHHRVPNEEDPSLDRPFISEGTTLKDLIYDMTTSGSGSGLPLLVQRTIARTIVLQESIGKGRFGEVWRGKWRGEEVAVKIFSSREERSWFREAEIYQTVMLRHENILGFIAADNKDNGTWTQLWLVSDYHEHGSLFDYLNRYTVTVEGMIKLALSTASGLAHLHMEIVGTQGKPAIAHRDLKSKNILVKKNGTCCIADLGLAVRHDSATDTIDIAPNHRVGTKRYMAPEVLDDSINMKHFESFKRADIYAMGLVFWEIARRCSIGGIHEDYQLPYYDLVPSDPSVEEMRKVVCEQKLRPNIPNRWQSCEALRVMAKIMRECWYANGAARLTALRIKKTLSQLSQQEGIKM
In words: Inhibition of ALK5. The note with it: read-out: pIC50 (converted).

Assay [1] addresses Rho-associated protein kinase 1 (Homo sapiens, UniProt Q13464). The assay is described as follows: Inhibition of ROCK1.
The target of a further assay is T2, Aurora kinase A (Homo sapiens, UniProt O14965).
T2 sequence (O14965 whole entry): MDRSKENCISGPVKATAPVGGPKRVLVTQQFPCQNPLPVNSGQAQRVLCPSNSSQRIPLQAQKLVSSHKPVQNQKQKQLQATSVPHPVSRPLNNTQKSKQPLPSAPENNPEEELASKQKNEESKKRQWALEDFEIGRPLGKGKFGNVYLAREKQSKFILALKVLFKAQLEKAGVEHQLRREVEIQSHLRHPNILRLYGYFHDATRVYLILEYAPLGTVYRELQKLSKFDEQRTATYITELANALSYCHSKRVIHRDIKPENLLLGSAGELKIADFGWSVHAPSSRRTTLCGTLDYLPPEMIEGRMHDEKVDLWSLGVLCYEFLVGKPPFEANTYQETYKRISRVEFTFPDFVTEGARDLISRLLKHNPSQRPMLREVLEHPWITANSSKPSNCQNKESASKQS
In words: Inhibition of aurora A.

Assay [2] has as its target T3, 3-phosphoinositide-dependent protein kinase 1 (Homo sapiens, UniProt O15530).
T3 sequence (O15530 whole entry): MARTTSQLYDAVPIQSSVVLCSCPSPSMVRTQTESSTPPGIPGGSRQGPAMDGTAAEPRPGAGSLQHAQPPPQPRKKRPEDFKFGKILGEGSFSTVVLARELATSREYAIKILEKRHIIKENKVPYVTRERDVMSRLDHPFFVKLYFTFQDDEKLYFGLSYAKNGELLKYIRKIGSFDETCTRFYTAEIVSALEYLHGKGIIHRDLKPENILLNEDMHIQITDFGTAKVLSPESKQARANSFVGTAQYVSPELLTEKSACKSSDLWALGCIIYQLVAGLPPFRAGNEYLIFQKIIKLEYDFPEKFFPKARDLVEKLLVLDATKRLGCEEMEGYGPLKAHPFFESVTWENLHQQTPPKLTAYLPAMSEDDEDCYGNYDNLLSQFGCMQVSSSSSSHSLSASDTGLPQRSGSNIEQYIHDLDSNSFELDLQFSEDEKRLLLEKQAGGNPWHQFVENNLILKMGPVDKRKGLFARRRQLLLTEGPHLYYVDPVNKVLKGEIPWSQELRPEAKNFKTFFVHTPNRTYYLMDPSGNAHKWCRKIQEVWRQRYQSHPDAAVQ
In words: Inhibition of PDK1.

Chain of Aurora kinase B (Q96GD4 whole entry): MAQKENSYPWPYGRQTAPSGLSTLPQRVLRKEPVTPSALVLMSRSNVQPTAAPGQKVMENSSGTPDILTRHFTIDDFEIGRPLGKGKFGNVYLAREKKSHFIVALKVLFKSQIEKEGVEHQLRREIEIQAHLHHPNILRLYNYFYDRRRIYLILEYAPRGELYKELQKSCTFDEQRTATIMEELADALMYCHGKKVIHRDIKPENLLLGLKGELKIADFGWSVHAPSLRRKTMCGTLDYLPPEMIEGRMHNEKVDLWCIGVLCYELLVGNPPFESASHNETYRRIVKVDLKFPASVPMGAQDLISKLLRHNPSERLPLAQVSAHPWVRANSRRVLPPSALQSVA
Chain of Rho-associated protein kinase 1 (Q13464 whole entry): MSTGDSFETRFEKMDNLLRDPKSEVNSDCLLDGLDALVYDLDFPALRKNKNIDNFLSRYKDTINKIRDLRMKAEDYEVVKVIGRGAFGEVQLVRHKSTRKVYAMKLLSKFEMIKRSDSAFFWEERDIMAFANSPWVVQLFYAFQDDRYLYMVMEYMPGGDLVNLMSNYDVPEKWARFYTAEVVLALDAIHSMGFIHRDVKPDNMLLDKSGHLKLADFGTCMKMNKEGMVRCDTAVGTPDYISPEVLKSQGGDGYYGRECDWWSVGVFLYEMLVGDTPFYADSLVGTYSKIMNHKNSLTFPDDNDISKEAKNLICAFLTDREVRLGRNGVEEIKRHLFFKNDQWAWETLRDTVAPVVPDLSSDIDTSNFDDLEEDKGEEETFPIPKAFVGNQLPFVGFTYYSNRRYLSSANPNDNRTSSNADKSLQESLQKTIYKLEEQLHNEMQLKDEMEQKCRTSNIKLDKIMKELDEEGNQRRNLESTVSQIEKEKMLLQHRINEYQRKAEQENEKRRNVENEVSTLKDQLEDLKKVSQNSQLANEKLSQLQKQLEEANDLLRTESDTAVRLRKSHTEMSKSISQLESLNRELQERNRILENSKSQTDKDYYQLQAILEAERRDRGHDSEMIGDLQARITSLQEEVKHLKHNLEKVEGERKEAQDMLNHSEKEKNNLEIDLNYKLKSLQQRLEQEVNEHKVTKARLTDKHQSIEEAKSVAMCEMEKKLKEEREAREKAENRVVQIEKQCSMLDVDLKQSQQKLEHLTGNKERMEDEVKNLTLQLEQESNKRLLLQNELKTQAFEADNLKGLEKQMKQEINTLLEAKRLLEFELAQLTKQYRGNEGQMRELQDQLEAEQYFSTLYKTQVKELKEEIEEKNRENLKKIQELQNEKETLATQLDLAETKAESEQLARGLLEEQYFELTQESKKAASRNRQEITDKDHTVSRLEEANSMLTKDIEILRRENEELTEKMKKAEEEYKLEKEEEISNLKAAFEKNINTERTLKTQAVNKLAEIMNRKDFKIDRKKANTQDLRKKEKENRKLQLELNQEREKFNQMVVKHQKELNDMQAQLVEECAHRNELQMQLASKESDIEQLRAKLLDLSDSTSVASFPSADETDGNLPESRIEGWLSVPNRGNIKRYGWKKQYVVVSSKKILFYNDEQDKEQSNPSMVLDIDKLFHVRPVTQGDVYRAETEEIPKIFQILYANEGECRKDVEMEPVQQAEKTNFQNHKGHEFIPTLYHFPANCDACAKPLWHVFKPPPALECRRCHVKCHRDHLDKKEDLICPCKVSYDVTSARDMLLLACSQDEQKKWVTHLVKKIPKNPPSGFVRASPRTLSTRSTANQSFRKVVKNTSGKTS

`C[C@@H]1CC[C@H](C(=O)Nc2ccccc2)CN1c1cc(-c2ccc3c(N)[nH]nc3c2)nc(N)n1`: the IC50 at Aurora kinase B is 1 µM; at TGF-beta receptor type-1, 6.31 µM; in assay [1], 0.2 µM.
As to `C[C@H]1COCCN1c1cc(-c2ccc3c(N)n[nH]c3c2)nc(N)n1`, the IC50 against Aurora kinase A is more than 10 µM; against Aurora kinase B, 25.1 µM; on TGF-beta receptor type-1, more than 10 µM; in assay [1] it was 15.8 µM.
Take `Nc1nc(-c2ccc3c(N)n[nH]c3c2)cc(N2CCCCC2)n1`: the IC50 in assay [2] was 0.251 µM; against Aurora kinase A, more than 10 µM; against Aurora kinase B it was more than 10 µM; at TGF-beta receptor type-1, more than 10 µM; in assay [1], more than 10 µM.
Take `Nc1nc(-c2ccc3c(N)n[nH]c3c2)cc(N2CCC[C@H](C(=O)NC3CCCCC3)C2)n1`: the IC50 in assay [2] was 0.0631 µM; at Aurora kinase A, more than 10 µM; at Aurora kinase B it was 3.98 µM; at TGF-beta receptor type-1, more than 10 µM; in assay [1], 5.01 µM.
Consider `C[C@@H]1CC[C@H](NC(=O)OC(C)(C)C)CN1c1cc(-c2ccc3c(N)n[nH]c3c2)nc(N)n1`, for which the IC50 was 2 µM at Aurora kinase A, 0.0501 µM against Aurora kinase B, more than 10 µM on TGF-beta receptor type-1 and more than 10 µM in assay [1].
For `Nc1nc(-c2ccc3c(N)n[nH]c3c2)cc(N2CCO[C@@H](C(=O)Nc3ccccc3)C2)n1`, the IC50 in assay [2] is 1 µM; at Aurora kinase A, more than 10 µM; against Aurora kinase B it was more than 10 µM; on TGF-beta receptor type-1 it was more than 10 µM; in assay [1], more than 10 µM.
In assay [2], `COc1nccc(-c2ccc3c(N)n[nH]c3c2)n1` showed an IC50 of 12.6 µM.
Regarding `CC(C)(C)OC(=O)N[C@H]1CCCN(c2cc(-c3ccc4c(N)n[nH]c4c3)nc(N)n2)C1`, the IC50 in assay [2] is 1 µM; against Aurora kinase A, 6.31 µM; on Aurora kinase B, 0.316 µM; on TGF-beta receptor type-1, more than 10 µM; in assay [1], more than 10 µM.
In the case of `C[C@@H]1CO[C@H](C(=O)Nc2ccccc2)CN1c1cc(-c2ccc3c(N)n[nH]c3c2)nc(N)n1`, the IC50 is 0.2 µM on Aurora kinase A, 0.316 µM on Aurora kinase B, more than 10 µM at TGF-beta receptor type-1 and 0.158 µM in assay [1].
On to `Nc1nc(-c2ccc3c(N)[nH]nc3c2)cc(N2CCOCC2)n1`, for which the IC50 (against Aurora kinase A; at Aurora kinase B; on TGF-beta receptor type-1; in assay [1]) was more than 10 µM each time.
On to `CC(C)[C@@H]1COCCN1c1cc(-c2ccc3c(N)n[nH]c3c2)nc(N)n1`, for which the IC50 in assay [2] was 0.2 µM; on Aurora kinase A, 12.6 µM; against Aurora kinase B it was 7.94 µM; at TGF-beta receptor type-1, more than 10 µM; in assay [1], 15.8 µM.
Regarding `COc1cc(-c2ccc3c(N)n[nH]c3c2)nc(N)n1`, the IC50 in assay [2] was 0.251 µM; against Aurora kinase A it was 6.31 µM; at Aurora kinase B, 7.94 µM; on TGF-beta receptor type-1, 3.16 µM; in assay [1], 5.01 µM.
For `CC(C)Nc1cc(-c2ccc3c(N)n[nH]c3c2)nc(N)n1`, the IC50 in assay [2] was 0.126 µM; at Aurora kinase A, 2 µM; at Aurora kinase B, 15.8 µM; on TGF-beta receptor type-1, 0.501 µM; in assay [1], more than 10 µM.
Regarding `C[C@H]1CC[C@@H](C(=O)Nc2ccccc2)CN1c1cc(-c2ccc3c(N)n[nH]c3c2)nc(N)n1`, the IC50 was 5.01 µM against Aurora kinase B and more than 10 µM at TGF-beta receptor type-1.
With `Nc1nc(Nc2ccccc2)cc(-c2ccc3c(N)n[nH]c3c2)n1`, the IC50 is 0.02 µM in assay [2]; 0.2 µM against Aurora kinase A; 3.16 µM against Aurora kinase B; 0.0251 µM on TGF-beta receptor type-1; 2.51 µM in assay [1].
Consider `CC(C)c1cc(-c2ccc3c(N)n[nH]c3c2)nc(N)n1`, for which the IC50 in assay [2] is 0.251 µM; against Aurora kinase A it was 3.16 µM; on Aurora kinase B it was 7.94 µM; at TGF-beta receptor type-1 it was 2 µM; in assay [1] it was more than 10 µM.
In the case of `Nc1nc(-c2ccc3c(N)[nH]nc3c2)cc(N2CCO[C@H](C(=O)Nc3ccccc3)C2)n1`, the IC50 against Aurora kinase A is 1.26 µM; on Aurora kinase B, 3.16 µM; at TGF-beta receptor type-1 it was more than 10 µM; in assay [1], 0.794 µM.
As to `CCNc1cc(-c2ccc3c(N)[nH]nc3c2)nc(N)n1`, the IC50 was 2.51 µM against Aurora kinase A, 10 µM at Aurora kinase B, 0.501 µM at TGF-beta receptor type-1 and more than 10 µM in assay [1].
On to `CC[C@@H]1COCCN1c1cc(-c2ccc3c(N)n[nH]c3c2)nc(N)n1`, for which the IC50 at Aurora kinase A is 5.01 µM; on Aurora kinase B it was more than 10 µM; on TGF-beta receptor type-1, more than 10 µM; in assay [1], more than 10 µM.
As for `CCNc1nccc(-c2ccc3c(N)n[nH]c3c2)n1`, the IC50 in assay [2] is 7.94 µM.
For the compound `Nc1nc(-c2ccc3c(N)n[nH]c3c2)cc(N2CCC[C@@H](C(=O)Nc3ccccc3)C2)n1`, the IC50 in assay [2] was 0.126 µM; against Aurora kinase A it was 7.94 µM; against Aurora kinase B it was 1.58 µM; at TGF-beta receptor type-1, more than 10 µM; in assay [1] it was 3.16 µM.
Regarding `Cc1cc(-c2ccc3c(N)n[nH]c3c2)nc(N)n1`, the IC50 against Aurora kinase A is 3.98 µM; against Aurora kinase B it was 12.6 µM; at TGF-beta receptor type-1 it was 7.94 µM; in assay [1], 3.98 µM.
Turning to `Nc1nccc(-c2ccc3c(N)n[nH]c3c2)n1`, the IC50 in assay [2] is 0.398 µM; against Aurora kinase A, 0.398 µM; at TGF-beta receptor type-1, 1.58 µM; in assay [1] it was 1.58 µM.
Regarding `C[C@@H]1CC[C@@H](C(=O)Nc2ccccc2)CN1c1cc(-c2ccc3c(N)n[nH]c3c2)nc(N)n1` (racemic), the figures for the IC50 (at Aurora kinase B; at TGF-beta receptor type-1; in assay [1]) were 2 µM, more than 10 µM and more than 10 µM, respectively.
On to `Nc1nc(NC2CCCC2)cc(-c2ccc3c(N)n[nH]c3c2)n1`, for which the IC50 at Aurora kinase A was 2.51 µM; on Aurora kinase B it was 7.94 µM; on TGF-beta receptor type-1, 0.398 µM; in assay [1], 6.31 µM.
Regarding `Nc1nc(-c2ccc3c(N)n[nH]c3c2)cc(N2CCCC2)n1`, the IC50 in assay [2] was 0.251 µM; on Aurora kinase A it was more than 10 µM; at Aurora kinase B, more than 10 µM; at TGF-beta receptor type-1 it was more than 10 µM; in assay [1], more than 10 µM.
On to `Nc1nc(-c2ccc3c(N)n[nH]c3c2)cc(N2CCCC(NC(=O)c3ccccc3)C2)n1` (racemic), for which the IC50 in assay [2] was 0.0631 µM; on Aurora kinase A it was 1.26 µM; on Aurora kinase B it was 0.0251 µM; on TGF-beta receptor type-1 it was more than 10 µM; in assay [1] it was more than 10 µM.
With `CNc1nccc(-c2ccc3c(N)n[nH]c3c2)n1`, the IC50 in assay [2] is 1 µM.
Take `Nc1nc(-c2ccc3c(N)n[nH]c3c2)cc(N2CCC[C@H](C(=O)Nc3ccccc3)C2)n1`: the IC50 in assay [2] was 0.0316 µM; at Aurora kinase A it was 7.94 µM; against Aurora kinase B it was 1.26 µM; on TGF-beta receptor type-1, more than 10 µM; in assay [1], 2 µM.
`C[C@H]1CC[C@@H](NC(=O)OC(C)(C)C)CN1c1cc(-c2ccc3c(N)[nH]nc3c2)nc(N)n1` (racemic): the IC50 is 0.794 µM at Aurora kinase A, 0.158 µM on Aurora kinase B, more than 10 µM on TGF-beta receptor type-1 and more than 10 µM in assay [1].
In the case of `C[C@@H]1COCCN1c1cc(-c2ccc3c(N)[nH]nc3c2)nc(N)n1`, the IC50 was 12.6 µM at Aurora kinase A, 25.1 µM against Aurora kinase B, more than 10 µM on TGF-beta receptor type-1 and 15.8 µM in assay [1].
Consider `CN(C)c1nccc(-c2ccc3c(N)n[nH]c3c2)n1`, for which the IC50 in assay [2] was 20 µM.
With `C[C@H]1CC[C@@H](NC(=O)OC(C)(C)C)CN1c1cc(-c2ccc3c(N)[nH]nc3c2)nc(N)n1`, the values for the IC50 against Aurora kinase A and against Aurora kinase B were 0.501 µM and 1 µM, respectively.
